The values that follow come from US8461329B2, “Isoquinoline derivative” (Taisho Pharmaceutical Co., Ltd., priority 2008, dated 2013).

Some results are limits rather than exact numbers.

In this assay the target is T1, CRTH2 (KB8 cells) (Homo sapiens, UniProt Q9Y5Y4).
T1 construct: host or cells: KB8 cells (human CRTH2 expression cell)
T1 sequence (Q9Y5Y4 1-395): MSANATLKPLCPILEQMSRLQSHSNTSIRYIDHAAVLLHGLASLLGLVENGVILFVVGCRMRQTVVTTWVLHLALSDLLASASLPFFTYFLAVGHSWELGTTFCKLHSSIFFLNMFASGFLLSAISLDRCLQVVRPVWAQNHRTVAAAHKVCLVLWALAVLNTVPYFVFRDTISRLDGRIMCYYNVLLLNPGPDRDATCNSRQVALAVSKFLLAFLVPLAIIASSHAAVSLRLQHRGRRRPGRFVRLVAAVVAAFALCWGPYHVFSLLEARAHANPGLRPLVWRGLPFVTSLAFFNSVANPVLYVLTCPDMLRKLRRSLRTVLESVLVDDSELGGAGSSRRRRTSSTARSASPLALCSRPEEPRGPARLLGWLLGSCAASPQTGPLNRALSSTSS
Nature of the assay: CRTH2 antagonist test (PGD2-induced intracellular calcium ion concentration increase in KB8 cells). It is filed as cell-based. The conditions noted are these: PGD2 final concentration 100 nM, Fluo-4-AM fluorescence, read-out: antagonist activity (IC50 value, inhibition of calcium ion concentration increase). Here is the method:
The antagonist activity of the compound of the present invention was considered by using the intracellular calcium ion concentration increase reaction induced when the prostaglandin D2 was added to KB8 cells.
Fluo-4-AM (4-(6-acetoxymethoxy-2,7-difluoro-3-oxo-9-xanthenyl)-4′-methyl-2,2′-(ethylenedioxy)dianilide-N,N,N′,N′-tetraacetic acid tetrakis(acetoxymethyl) ester (SIGMA, final concentration: 1 μM) was added to KB8 cells, and the cells were incubated at 37° C. for 30 min, washed with phosphate buffer (Invitrogen), and then suspended in Hank's balanced salt solution (Invitrogen)) containing a reaction buffer solution (10 mM HEPES (Invitrogen), and 1 mM calcium chloride (SIGMA). The suspension was dispensed in a 96 well plate (Nunc) so that 2×10^5 cells/well were placed, and the compound of the present invention and PGD2 (final concentration: 100 nM) were added. The fluorescence intensity thereof was measured over time by using FDSS6000 (Hamamatsu Photonics), and thus the maximum fluorescence intensity value “d” was obtained. The same procedure was carried out in the absence of the compound, and the maximum fluorescence intensity value “e” was obtained; and the same procedure was carried out in the absence of the compound and […], and the maximum fluorescence intensity value “f” was obtained.
The calcium ion concentration increase inhibition rate of a compound was calculated by the following calculation formula: Inhibitory rate(%)=[1−(d−f)/(e−f)]×100
That is to say, by using calcium ion concentration increase inhibitory rates of compounds to be tested having various concentrations, the IC50 value was calculated according to a dose-dependent inhibition curve analyzed by using XLfit (IDBS) as a data analysis software, and the value was defined as an indicator of the antagonist activity. In Tables, A denotes an inhibitory activity showing the IC50 value of less than 50 nM; B denotes an inhibitory activity showing the IC50 value of 50 nM or greater and less than 500 nM; C denotes an inhibitory activity showing the IC50 value of 500 nM or greater and less than 1000 nM; and D denotes an inhibitory activity showing the IC50 value of 1000 nM or greater.

For the molecule `CC(C)(CNC(=O)c1ccc(Cc2ncc(CC(=O)O)c3ccccc23)cc1)c1ccc(Cl)cc1` [Example 251], the IC50 was in the range of 50 to 500 nM. Take `COc1ccc2c(C(=O)c3ccc(C(=O)NCCc4ccc(Cl)cc4)cc3)ncc(CC(=O)O)c2c1` [Example 260, {1-[(4-{[2-(4-chlorophenyl)ethyl]carbamoyl}phenyl)carbonyl]-6-methoxyisoquinolin-4-yl}acetic acid]: the IC50 was in the range of 50 to 500 nM. As for `O=C(O)Cc1cnc(Cc2ccc(C(=O)NCCc3c(Cl)cccc3Cl)cc2)c2ccccc12` [Example 191], the figure is 50 to 500 nM; as for `O=C(O)Cc1cnc(C(=O)c2ccc(NC(=O)c3ccccc3Br)cc2)c2ccccc12` [Example 25], at least 1000 nM; as for `O=C(O)Cc1cnc(Cc2ccc(C(=O)NCCc3ccncc3)cc2)c2ccccc12` [Example 177], at least 1000 nM. The value for `COc1ccccc1CCNC(=O)c1ccc(Cc2ncc(CC(=O)O)c3ccccc23)cc1` [Example 184] was 50 to 500 nM; that for `O=C(O)Cc1cnc(Cc2ccc(C(=O)NCCc3ccccn3)cc2)c2ccccc12` [Example 175] was at least 1000 nM; that for `O=C(O)Cc1cnc(Cc2ccc(C(=O)NCCc3ccccc3F)cc2)c2ccccc12` [Example 181] was 50 to 500 nM. With `O=C(O)Cc1cnc(Cc2ccc(OCCc3ccc(Cl)cc3)cc2)c2ccccc12` [Example 149, (1-{4-[2-(4-chlorophenyl)ethoxy]benzyl}isoquinolin-4-yl)acetic acid], the IC50 lay within 500 to 1000 nM. As for `O=C(O)Cc1cnc(C(=O)c2ccc(NC(=O)c3cccc(F)c3)cc2)c2ccccc12` [Example 71], the figure is 50 to 500 nM; as for `O=C(O)Cc1cnc(C(=O)c2ccc(NC(=O)c3cnc4ccccc4c3)cc2)c2ccccc12` [Example 112], under 50 nM; as for `COc1ccc(CCNC(=O)c2ccc(Cc3ncc(CC(=O)O)c4ccccc34)cc2)cc1Cl` [Example 157], under 50 nM. As to `O=C(O)Cc1cnc(C(=O)c2ccc(NC(=O)c3ccncc3)cc2)c2ccccc12` [Example 51], the IC50 is at least 1000 nM. As for `Cc1ccccc1CCNC(=O)c1ccc(Cc2ncc(CC(=O)O)c3ccccc23)cc1` [Example 167], the IC50 is under 50 nM. For `O=C(O)Cc1cnc(C(=O)c2ccc(NC(=O)c3ccc(F)c(F)c3F)cc2)c2ccccc12` [Example 52], the IC50 fell in the range of 50 to 500 nM.

In the case of `O=C(O)Cc1cnc(C(=O)c2ccc(NC(=O)c3cc(F)ccc3Cl)cc2)c2ccccc12` [Example 42], the IC50 fell in the range of 500 to 1000 nM. As for `O=C(O)Cc1cnc(C(=O)c2ccc(NC(=O)c3cc(Cl)cc(Cl)c3)cc2)c2ccccc12` [Example 37], the figure is under 50 nM; as for `O=C(O)Cc1cnc(Cc2ccc(C(=O)NCCc3ccc4c(c3)CCCC4)cc2)c2ccccc12` [Example 218], under 50 nM; as for `COc1ccc(C(=O)Nc2ccc(C(=O)c3ncc(CC(=O)O)c4ccccc34)cc2)cc1OC` [Example 106], 50 to 500 nM. As for `O=C(O)Cc1cnc(Cc2ccc(C(=O)NCCc3ccc(-c4ccccc4)cc3)cc2)c2ccccc12` [Example 194], the figure is under 50 nM. For `Cc1ccc2sc(C(=O)Nc3ccc(C(=O)c4ncc(CC(=O)O)c5ccccc45)cc3)cc2c1` [Example 102], the IC50 is under 50 nM. For the molecule `Cc1ccc(C(=O)Nc2ccc(C(=O)c3ncc(CC(=O)O)c4ccccc34)cc2)cc1C` [Example 101], the IC50 is under 50 nM. Regarding `O=C(O)Cc1cnc(Cc2ccc(C(=O)NCCc3cn4ccccc4n3)cc2)c2ccccc12` [Example 227], the IC50 is at least 1000 nM. On to `Cc1c(C)c(C)c(CCNC(=O)c2ccc(Cc3ncc(CC(=O)O)c4ccccc34)cc2)c(C)c1C` [Example 192], for which the IC50 is under 50 nM. For the molecule `O=C(O)Cc1cnc(Cc2ccc(C(=O)NCCc3ccc(C(=O)O)cc3)cc2)c2ccccc12` [Example 173], the IC50 was at least 1000 nM.

In the case of `O=C(O)Cc1cnc(C(=O)c2ccc(NC(=O)c3ccc4cccnc4n3)cc2)c2ccccc12` [Example 105], the IC50 is 500 to 1000 nM.

Consider `O=C(O)Cc1cnc(C(=O)c2ccc(NC(=O)c3csc4ccccc34)cc2)c2ccccc12` [Example 88], for which the IC50 is under 50 nM.
